From patent US8187876B2, “Expansion of stem/progenitor cells by inhibition of enzymatic reactions catalyzed by the Sir2 family of enzymes” (Gamida Cell Ltd., priority 2004, dated 2012)

Assays:
Type in all cases: cell-based, human
CD34+ cells [1] = assay: FACS immunophenotyping of cultured/re-selected CD34+ cells for stem/early progenitor cells
Experimental: Immunophenotyping—For immuno-phenotyping, cells were harvested, washed with phosphate buffered saline (PBS), containing 1% BSA and 0.1% sodium azide, and stained by incubation (at 4° C. for 60 min) with phycoerythrin (PE)-conjugated anti CD38 (Immunoquality Products, The Netherlands), flourescein isothiocyanate (FITC)-conjugated anti CD34 (Miltenyi Biotec) both at 5 μl per 50 μl cell suspension. The cells were then washed with the same buffer and analyzed, using FACS-calibur flow cytometer (Becton-Dickinson, Immunofluorometry systems, Mountain View, Calif.). Cells were passed at a rate of about 1000 cells/second, using saline as the sheath fluid. A 488 nm argon laser beam served as the light source for excitation. Emission of ten thousand cells was measured using logarithmic amplification and calculated using the cellQuest software. Background noise was determined using isotype control stained cells. Arithmetic Mean Fluorescence Channel (MFC) of the negative and positive populations and the stained cells to noise (S/N) ratio were calculated.
The highly purified, re-selected CD34+ cell fraction from a three week culture was FACS analyzed for stem/early progenitor cells: CD34+CD38− (FIG. 3), CD34+Lin−(CD3, 4, 19, 38, 33, 14 and 15 minus, FIG. 4) as well as for the percentages of CD38-HLA-DR minus cells (FIG. 5). […] For example, at 5 uM nicotinamide the percentages of CD34+Lin− cells were 4.11 whereas in control cultures only 0.02%, the percentages of CD34+CD38− cells were 34.6 in nicotinamide cultures and only 0.67 in control.
The CD34+CD38− cells are shown in the upper left part of the plot. FIG. 6b, the cells were stained with CD34(PE) and Lin(38, 33, 4, 3, 15, 14, 19, 61) (FITC). The CD34+Lin− cells are shown in the upper left part of the plot. FIG. 6c, the cells were stained for 34PE and HLA-DR and CD38 FITC. The CD34+/CD38− HLA-DR− cells are shown in the upper left part of the plot.

CD34+ cells [2] = assay: Ex vivo expansion of CD34+ cell cultures, three weeks, CD34+ cells re-selected and enumerated; conditions: 5 μM nicotine amide; cytokines SCF, TPO, FLt3, IL-6, IL-3; only cytokine treated cultures 35×10^4
Experimental: Sample collection and purification—Cells were obtained from umbilical cord blood (CB) after a normal full-term delivery (informed consent was given). Samples were collected and processed within 12 hours postpartum. Blood was mixed with 3% Gelatin (Sigma, St. Louis, Mo.) and let sedimented for 30 minutes to remove most red blood cells (RBC). The leukocyte-rich fraction was harvested and layered on Ficoll-Hypaque gradient (1.077 g/mL; Sigma), and centrifuged at 400 g for 30 minutes. […]
Purification of CDD133+ and CD34+ cells—To purify CDD133+ or CD34^+ cells, the mononuclear cell fraction was subjected to two cycles of immuno-magnetic separation using the “MiniMACS or Clinimax CD34 progenitor cell isolation kit” (Miltenyi Biotec, Aubun, Calif.) following the manufacturer's recommendations. The purity of the CD34^+ population obtained ranged from 95% to 98% as evaluated by flow cytometry (see below). […]
At weekly intervals, cell cultures were semi-depopulated and supplemented with fresh medium, serum and cytokines. At various time points, cells were harvested, counted following staining with trypan blue, and cell morphology was determined on cytospin (Shandon, UK)-prepared smears stained with May-Grunwald/Giemsa solutions. […]

CD34+ cells [3] = assay: Assay for Colony Forming Units (CFUc) in semi-solid medium; conditions: 200 mM Splitomicin for first 3 weeks; week 5; colonies scored after 14 days
Experimental: Assay for Colony Forming Units (CFU)—Cells were cloned in semi-solid, methylcellulose-containing medium supplemented with 2 IU/mL erythropoietin (Eprex, Cilag AG Int., Switzerland), stem cell factor and IL-3, both at 20 ng/mL, G-CSF and GM-CSF, both at 10 ng/mL (all from Perpo Tech). Cultures were incubated for 14 days at 37° C. in humidified atmosphere of 5% CO2 in air.
Cell culturing—Cell culturing was effected was described above. Specifically, cultures were initiated with a total of 1.2×10^5 CD34+ cells in cytokine-supplemented medium, with or without (control) […] Splitomicin. From week 3 and on all cultures were supplemented with cytokines only. On week 5 cells were enumerated, numbers of CFUc were determined and CD34+ cells were re-isolated from 10 ml cultures, counted and accumulative numbers per culture were calculated.

CD34+ cells [4] = assay: Two phase culture system: long-term expansion of CD34+ cell cultures (3-week treatment phase, then cytokines only); conditions: 200 mM Splitomicin for first 3 weeks
Experimental: Two phase culture system—Purified CD34+ cells were cultured in culture bags (American Fluoroseal Co. Gaithersburg, Md., USA) at a concentration of 1×10^4 cells/ml in MEMα/10% FCS containing the following human recombinant cytokines: Thrombopoietin (TPO), interleukin-6 (IL-6), FLT-3 ligand and stem cell factor (SCF), each at a final concentration of 50 ng/ml (Perpo Tech, Inc., Rocky Hill, N.J., USA), with or without Nicotinamide or Sirtinol or Splitomicin and incubated at 37° C. in a humidified atmosphere of 5% CO2 in air. Until week 3, the cultures were topped weekly with the same volume of fresh medium, Nicotinamide or Sirtinol or Splitomicin and growth factors. From week three and up to the termination of the experiments the cultures were weekly demi-depopulated and supplemented with cytokines only. Cells were counted following staining with trypan blue. At various time points, harvested cells were used to assay the content of colony forming units in culture (CFUc), enumeration of CD34+ cells following re-selection and immunophenotype analysis. Cell morphology was determined on cytospin (Shandon). […] On week 5 cells were enumerated, numbers of CFUc were determined and CD34+ cells were re-isolated from 10 ml cultures, counted and accumulative numbers per culture were calculated.

## NC(=O)c1cccnc1 [Nicotinamide, nicotinamide]
CD34+ cells [1]; 5 uM nicotinamide, three week culture, control 0.67
  percentages of CD34+CD38− cells in re-selected CD34+ fraction: 34.6%
CD34+ cells [1]; 5 uM nicotinamide, three week culture, control cultures 0.02%
  percentages of CD34+Lin− cells in re-selected CD34+ fraction: 4.11%
CD34+ cells [2]
  CD34+ cells re-selected after three week expansion: 180×10^4

## O=C1CCc2c(ccc3ccccc23)O1 [Splitomicin]
CD34+ cells [3]
  colony formation (CFU analysis), self-renewal potential: increase in colony formation
CD34+ cells [1]; 75 mM splitomicin
  CD34+/CD38− population shift in FACS dot plot: remarkable up-left shift
CD34+ cells [4]; CD34+ cells re-isolated on week 5
  increase in CD34+ cells: about 30%
CD34+ cells [4]; counted on week 5
  total cell expansion vs cytokine-only control: more than 2 fold
